From US20160312240A1, “MODIFIED PYR/PYL RECEPTORS ACTIVATED BY ORTHOGONAL LIGANDS” (The Regents of the University of California, priority 2010, published 2016)

Tests used:
[1] = tested on: 35S::GFP-PYL2 K64R,Y124H,M164I,V67I,V114I transgenic plants; assay: Seedling germination/growth on fenhexamid; format: in vivo, Arabidopsis; details: 100 μM fenhexamid; T2 seedlings expressing mutant PYL2; FIG. 4
Description: (§1) FIG. 4. Characterization of seedling responses to fenhexamid in 35S::GFP-PYL2 K64R, Y124H, M164I, V67I, V114I transgenic plants. […] Shown are segregating GFP-expressing T2 seedlings from primary transgenic plants (T1). Columbia is the wild-type background and is non-transgenic. Two independent PYL2 K64R, Y124H, M164I, V67I, V114I (“PYL2 MUT”) transgenic lines were characterized in addition to a wild-type PYL2 overexpression line. Seeds from respective lines were germinated in the dark on media containing 100 μM fenhexamid and scored two days post-imbibition.
(§2) To investigate if the fenhexamid response observed in yeast and in vitro experiments would function in plants, transgenic 35S::GFP-PYL2 and 35S::GFP-PYL2^K64R,Y124H,M164I,V67I,V114I plants were constructed using standard molecular cloning methods into a modified version of pEGAD (Cutler et al., Proc Natl Acad Sci U.S.A. 97:3718-3723 (2000)) in which a 6×-histidine tag was added onto the N-terminus of GFP. Transgenic plants were made using the floral-dip method and primary transgenics (T1) identified by screening seedlings by epi-fluorescence using a Leica GFP dissecting microscope. The GFP^+ transgenic plants were grown to maturity and T2 seed collected for further analyses. […]

[2] = tested on: control lines (Columbia wild-type; wild-type PYL2 overexpression line); assay: Seedling germination/growth on fenhexamid; format: in vivo, Arabidopsis; details: 100 μM fenhexamid, germinated in the dark, scored two days post-imbibition, FIG. 4
Description: as §1, §2

Compound: CC1(C(=O)Nc2ccc(O)c(Cl)c2Cl)CCCCC1 [fenhexamid]
- Seedling growth on fenhexamid [1]: strong growth inhibition
- Post-germination arrest on fenhexamid [2]: do not
